ChEMBL document CHEMBL1201861, “Genomics of Drug Sensitity in Cancer screening data, Wellcome Trust Sanger Institute”

Key:
Assay in all cases: cells
D-392MG = format: functional, cell-based, Homo sapiens; details: Homo sapiens, D-392MG
DJM-1 = format: functional, cell-based, Homo sapiens; details: Homo sapiens, DJM-1;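 note: growth inhibition of human DJM-1 cells, read out by a cell viability assay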
Description: SANGER: Inhibition of human DJM-1 cell growth in a cell viability assay.

EKVX = format: functional, cell-based, Homo sapiens; details: Homo sapiens, EKVX;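 note: growth inhibition of human EKVX cells, read out with a cell viability assay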
Description: SANGER: Inhibition of human EKVX cell growth in a cell viability assay.

ES4 = format: functional, cell-based, Homo sapiens; details: Homo sapiens, ES4;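 note: growth inhibition of human ES4 cells, read out by a cell viability assay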
Description: SANGER: Inhibition of human ES4 cell growth in a cell viability assay.

ES5 = format: functional, cell-based, Homo sapiens; details: Homo sapiens, ES5;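 note: growth inhibition of human ES5 cells, read out by a cell viability assay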
Description: SANGER: Inhibition of human ES5 cell growth in a cell viability assay.

ES7 = format: functional, cell-based, Homo sapiens; details: Homo sapiens, ES7;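 note: growth inhibition of cultured human ES7 cells, read out as cell viability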
Description: SANGER: Inhibition of human ES7 cell growth in a cell viability assay.

ETK-1 = format: functional, cell-based, Homo sapiens; details: Homo sapiens, ETK-1;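 note: growth inhibition of human ETK-1 cells, read out with a cell viability assay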
Description: SANGER: Inhibition of human ETK-1 cell growth in a cell viability assay.

EW-11 = format: functional, cell-based, Homo sapiens; details: Homo sapiens, EW-11;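 note: growth inhibition of human EW-11 cells, measured with a cell viability assay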
Description: SANGER: Inhibition of human EW-11 cell growth in a cell viability assay.

GAK = format: functional, cell-based, Homo sapiens; details: Homo sapiens, GAK;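 note: cell growth inhibition read out by a cell viability assay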
Description: SANGER: Inhibition of human GAK cell growth in a cell viability assay.

HAL-01 = format: functional, cell-based, Homo sapiens; details: Homo sapiens, HAL-01;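 note: growth inhibition of human HAL-01 cells, read out with a cell viability assay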
Description: SANGER: Inhibition of human HAL-01 cell growth in a cell viability assay.

HC-1 = format: functional, cell-based, Homo sapiens; details: Homo sapiens, HC-1;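 note: growth inhibition of HC-1 cells measured by a cell viability assay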
Description: SANGER: Inhibition of human HC-1 cell growth in a cell viability assay.

HD-MY-Z = format: functional, cell-based, Homo sapiens; details: Homo sapiens, HD-MY-Z;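 note: growth inhibition of HD-MY-Z cells, read out with a cell viability assay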
Description: SANGER: Inhibition of human HD-MY-Z cell growth in a cell viability assay.

HL-60 = format: functional, cell-based, Homo sapiens; details: Homo sapiens, HL-60;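 note: growth inhibition of human HL-60 cells, read out with a cell viability assay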
Description: SANGER: Inhibition of human HL-60 cell growth in a cell viability assay.

IST-SL1 = format: functional, cell-based, Homo sapiens; details: Homo sapiens, IST-SL1;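 note: growth inhibition of human IST-SL1 cells, read out with a cell viability assay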
Description: SANGER: Inhibition of human IST-SL1 cell growth in a cell viability assay.

L-363 = format: functional, cell-based, Homo sapiens; details: Homo sapiens, L-363
Description: SANGER: Inhibition of human L-363 cell growth in a cell viability assay.

LB2241-RCC = format: functional, cell-based, Homo sapiens; details: Homo sapiens, LB2241-RCC;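 note: cell viability assay measuring how strongly the cultured human renal carcinoma line is prevented from growing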
Description: SANGER: Inhibition of human LB2241-RCC cell growth in a cell viability assay.

LB771-HNC = format: functional, cell-based, Homo sapiens; details: Homo sapiens, LB771-HNC;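 note: growth inhibition of LB771-HNC human cells, read out with a cell viability assay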
Description: SANGER: Inhibition of human LB771-HNC cell growth in a cell viability assay.

LB831-BLC = format: functional, cell-based, Homo sapiens; details: Homo sapiens, LB831-BLC;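 note: growth inhibition of LB831-BLC cells, read out with a cell viability assay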
Description: SANGER: Inhibition of human LB831-BLC cell growth in a cell viability assay.

LS-1034 = format: functional, cell-based, Homo sapiens; details: Homo sapiens, LS-1034
Description: SANGER: Inhibition of human LS-1034 cell growth in a cell viability assay.

MEG-01 = format: functional, cell-based, Homo sapiens; details: Homo sapiens, MEG-01;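 note: growth inhibition of MEG-01 cells, read out by a cell viability assay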
Description: SANGER: Inhibition of human MEG-01 cell growth in a cell viability assay.

MFM-223 = format: functional, cell-based, Homo sapiens; details: Homo sapiens, MFM-223
Description: SANGER: Inhibition of human MFM-223 cell growth in a cell viability assay.

MHH-PREB-1 = format: functional, cell-based, Homo sapiens; details: Homo sapiens, MHH-PREB-1;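 note: cell viability assay measuring inhibition of proliferation of human MHH-PREB-1 cells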
Description: SANGER: Inhibition of human MHH-PREB-1 cell growth in a cell viability assay.

MOLT-16 = format: functional, cell-based, Homo sapiens; details: Homo sapiens, MOLT-16;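 note: growth inhibition of human MOLT-16 cells, read out with a cell viability assay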
Description: SANGER: Inhibition of human MOLT-16 cell growth in a cell viability assay.

MOLT-4 = format: functional, cell-based, Homo sapiens; details: Homo sapiens, MOLT-4;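 note: growth inhibition of MOLT-4 cells, determined with a cell viability readout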
Description: SANGER: Inhibition of human MOLT-4 cell growth in a cell viability assay.

MZ7-mel = format: functional, cell-based, Homo sapiens; details: Homo sapiens, MZ7-mel;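 note: growth inhibition of human MZ7-mel cells, measured by a cell viability assay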
Description: SANGER: Inhibition of human MZ7-mel cell growth in a cell viability assay.

Mo = format: functional, cell-based, Homo sapiens; details: Homo sapiens, Mo
Description: SANGER: Inhibition of human Mo-T cell growth in a cell viability assay.

NB12 = format: functional, cell-based, Homo sapiens; details: Homo sapiens, NB12;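 note: growth inhibition of human NB12 cells, read out by a cell viability assay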
Description: SANGER: Inhibition of human NB12 cell growth in a cell viability assay.

NB6 = format: functional, cell-based, Homo sapiens; details: Homo sapiens, NB6
Description: SANGER: Inhibition of human NB6 cell growth in a cell viability assay.

NB69 = format: functional, cell-based, Homo sapiens; details: Homo sapiens, NB69;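 note: growth inhibition of NB69 cells, determined by a cell viability assay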
Description: SANGER: Inhibition of human NB69 cell growth in a cell viability assay.

NCI-H1838 = format: functional, cell-based, Homo sapiens; details: Homo sapiens, NCI-H1838;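 note: growth inhibition of NCI-H1838 cells, determined with a cell viability readout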
Description: SANGER: Inhibition of human NCI-H1838 cell growth in a cell viability assay.

NCI-H446 = format: functional, cell-based, Homo sapiens; details: Homo sapiens, NCI-H446;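 note: growth inhibition of NCI-H446 cells determined by a cell viability assay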
Description: SANGER: Inhibition of human NCI-H446 cell growth in a cell viability assay.

NKM-1 = format: functional, cell-based, Homo sapiens; details: Homo sapiens, NKM-1;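 note: growth inhibition of NKM-1 cells, read out with a cell viability assay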
Description: SANGER: Inhibition of human NKM-1 cell growth in a cell viability assay.

NOS-1 = format: functional, cell-based, Homo sapiens; details: Homo sapiens, NOS-1;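 note: growth inhibition of the human NOS-1 cell line, read out with a cell viability assay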
Description: SANGER: Inhibition of human NOS-1 cell growth in a cell viability assay.

P30-OHK = format: functional, cell-based, Homo sapiens; details: Homo sapiens, P30-OHK;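 note: growth inhibition of the P30-OHK cell line, read out with a cell viability assay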
Description: SANGER: Inhibition of human P30-OHK cell growth in a cell viability assay.

RCC10RGB = format: functional, cell-based, Homo sapiens; details: Homo sapiens, RCC10RGB;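 note: growth inhibition of human RCC10RGB cells, read out by a cell viability assay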
Description: SANGER: Inhibition of human RCC10RGB cell growth in a cell viability assay.

SCC-15 = format: functional, cell-based, Homo sapiens; details: Homo sapiens, SCC-15;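 note: growth inhibition of SCC-15 cells, read out with a cell viability assay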
Description: SANGER: Inhibition of human SCC-15 cell growth in a cell viability assay.

SF-268 = format: functional, cell-based, Homo sapiens; details: Homo sapiens, SF-268;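 note: growth inhibition of SF-268 cells determined with a cell viability assay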
Description: SANGER: Inhibition of human SF268 cell growth in a cell viability assay.

SH-4 = format: functional, cell-based, Homo sapiens; details: Homo sapiens, SH-4;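 note: growth inhibition of SH-4 cells, read out with a cell viability assay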
Description: SANGER: Inhibition of human SH-4 cell growth in a cell viability assay.

SNB-75 = format: functional, cell-based, Homo sapiens; details: Homo sapiens, SNB-75;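 note: cell viability assay measuring growth inhibition of human SNB-75 cells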
Description: SANGER: Inhibition of human SNB75 cell growth in a cell viability assay.

SW872 = format: functional, cell-based, Homo sapiens; details: Homo sapiens, SW872;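 note: growth inhibition of SW872 cells, read out by a viability assay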
Description: SANGER: Inhibition of human SW872 cell growth in a cell viability assay.

SW 962 = format: functional, cell-based, Homo sapiens; details: Homo sapiens, SW 962;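 note: growth inhibition of human SW962 cells, read out by a cell viability assay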
Description: SANGER: Inhibition of human SW962 cell growth in a cell viability assay.

SW982 = format: functional, cell-based, Homo sapiens; details: Homo sapiens, SW982;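 note: growth inhibition of SW982 cells, read out with a cell viability assay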
Description: SANGER: Inhibition of human SW982 cell growth in a cell viability assay.

697 = format: functional, cell-based, Homo sapiens; details: Homo sapiens
Description: SANGER: Inhibition of human 697 cell growth in a cell viability assay.

8-MG-BA = format: functional, cell-based, Homo sapiens; details: Homo sapiens, 8-MG-BA;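 note: growth inhibition of 8-MG-BA cells, read out with a cell viability assay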
Description: SANGER: Inhibition of human 8-MG-BA cell growth in a cell viability assay.

A4-Fuk = format: functional, cell-based, Homo sapiens; details: Homo sapiens, A4-Fuk;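 note: growth inhibition of A4-Fuk cells, read out by a cell viability assay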
Description: SANGER: Inhibition of human A4-Fuk cell growth in a cell viability assay.

BV-173 = format: functional, cell-based, Homo sapiens; details: Homo sapiens, BV-173
Description: SANGER: Inhibition of human BV-173 cell growth in a cell viability assay.

TE-5 = format: functional, cell-based, Homo sapiens; details: Homo sapiens, TE-5;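 note: inhibition of cell growth, read out by a cell viability assay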
Description: SANGER: Inhibition of human TE-5 cell growth in a cell viability assay.

TE-8 = format: functional, cell-based, Homo sapiens; details: Homo sapiens, TE-8;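 note: growth inhibition of TE-8 cells, measured with a cell viability readout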
Description: SANGER: Inhibition of human TE-8 cell growth in a cell viability assay.

TGBC24TKB = format: functional, cell-based, Homo sapiens; details: Homo sapiens, TGBC24TKB;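 note: growth inhibition of human TGBC24TKB cells, read out with a cell viability assay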
Description: SANGER: Inhibition of human TGBC24TKB cell growth in a cell viability assay.

U-87 MG = format: functional, cell-based, Homo sapiens, U-87MG ATCC; details: Homo sapiens, U-87 MG;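 note: growth inhibition of the cells measured with a viability assay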
Description: SANGER: Inhibition of human U-87-MG cell growth in a cell viability assay.

Structure (SMILES): O=C(O)c1ccc(-c2c[nH]c3ncc(-c4ccccc4)cc23)cc1C1CCCC1 [GSK-650394]
- IC50 (D-392MG): > 16 µM
- IC50 (DJM-1): > 16 µM
- IC50 (EKVX): > 16 µM
- IC50 (ES4): 4.06 µM
- IC50 (ES5): > 16 µM
- IC50 (ES7): > 16 µM
- IC50 (ETK-1): 10.1 µM
- IC50 (EW-11): > 16 µM
- IC50 (GAK): > 16 µM
- IC50 (HAL-01): > 16 µM
- IC50 (HC-1): > 16 µM
- IC50 (HD-MY-Z): > 16 µM
- IC50 (HL-60): > 16 µM
- IC50 (IST-SL1): > 16 µM
- IC50 (L-363): > 16 µM
- IC50 (LB2241-RCC): > 16 µM
- IC50 (LB771-HNC): > 16 µM
- IC50 (LB831-BLC): > 16 µM
- IC50 (LS-1034): > 16 µM
- IC50 (MEG-01): 5.26 µM
- IC50 (MFM-223): > 16 µM
- IC50 (MHH-PREB-1): > 16 µM
- IC50 (MOLT-16): 3.52 µM
- IC50 (MOLT-4): > 16 µM
- IC50 (MZ7-mel): > 16 µM
- IC50 (Mo): > 16 µM
- IC50 (NB12): > 16 µM
- IC50 (NB6): > 16 µM
- IC50 (NB69): > 16 µM
- IC50 (NCI-H1838): > 16 µM
- IC50 (NCI-H446): > 16 µM
- IC50 (NKM-1): 2.77 µM
- IC50 (NOS-1): > 16 µM
- IC50 (P30-OHK): 6.21 µM
- IC50 (RCC10RGB): > 16 µM
- IC50 (SCC-15): > 16 µM
- IC50 (SF-268): > 16 µM
- IC50 (SH-4): > 16 µM
- IC50 (SNB-75): > 16 µM
- IC50 (SW872): 13.7 µM
- IC50 (SW 962): > 16 µM
- IC50 (SW982): 13.8 µM
- IC50 697: > 16 µM
- IC50 (8-MG-BA): 15.6 µM
- IC50 (A4-Fuk): 14.9 µM
- IC50 (BV-173): > 16 µM
- IC50 (TE-5): > 16 µM
- IC50 (TE-8): 4.12 µM
- IC50 (TGBC24TKB): > 16 µM
- IC50 (U-87 MG): > 16 µM

Structure (SMILES): Cc1cn(-c2cc(NC(=O)c3ccc(C)c(Nc4nccc(-c5cccnc5)n4)c3)cc(C(F)(F)F)c2)cn1 [NILOTINIB]
- IC50 (D-392MG): > 2 µM
- IC50 (DJM-1): > 2 µM
- IC50 (EKVX): > 2 µM
- IC50 (ES4): > 2 µM
- IC50 (ES5): > 2 µM
- IC50 (ES7): > 2 µM
- IC50 (ETK-1): > 2 µM
- IC50 (EW-11): > 2 µM
- IC50 (GAK): > 2 µM
- IC50 (HAL-01): > 2 µM
- IC50 (HC-1): > 2 µM
- IC50 (HD-MY-Z): > 2 µM
- IC50 (HL-60): > 2 µM
- IC50 (IST-SL1): > 2 µM
- IC50 (L-363): > 2 µM
- IC50 (LB2241-RCC): 1.02 µM
- IC50 (LB771-HNC): > 2 µM
- IC50 (LB831-BLC): > 2 µM
- IC50 (LS-1034): > 2 µM
- IC50 (MEG-01): 0.00828 µM
- IC50 (MFM-223): > 2 µM
- IC50 (MHH-PREB-1): > 2 µM
- IC50 (MOLT-16): > 2 µM
- IC50 (MOLT-4): > 2 µM
- IC50 (MZ7-mel): > 2 µM
- IC50 (Mo): > 2 µM
- IC50 (NB12): > 2 µM
- IC50 (NB6): > 2 µM
- IC50 (NB69): > 2 µM
- IC50 (NCI-H1838): > 2 µM
- IC50 (NCI-H446): > 2 µM
- IC50 (NKM-1): 0.901 µM
- IC50 (NOS-1): > 2 µM
- IC50 (P30-OHK): > 2 µM
- IC50 (RCC10RGB): > 2 µM
- IC50 (SCC-15): > 2 µM
- IC50 (SF-268): > 2 µM
- IC50 (SH-4): > 2 µM
- IC50 (SNB-75): > 2 µM
- IC50 (SW872): > 2 µM
- IC50 (SW 962): > 2 µM
- IC50 (SW982): > 2 µM
- IC50 697: > 2 µM
- IC50 (8-MG-BA): > 2 µM
- IC50 (A4-Fuk): > 2 µM
- IC50 (BV-173): 0.0109 µM
- IC50 (TE-5): > 2 µM
- IC50 (TE-8): > 2 µM
- IC50 (TGBC24TKB): > 2 µM
- IC50 (U-87 MG): > 2 µM

Structure (SMILES): Nc1ccn([C@@H]2O[C@H](CO)[C@@H](O)C2(F)F)c(=O)n1 [GEMCITABINE]
- IC50 (D-392MG): 1.02 µM
- IC50 (DJM-1): 0.0216 µM
- IC50 (EKVX): > 1.02 µM
- IC50 (ES4): < 0.004 µM
- IC50 (ES5): > 1.02 µM
- IC50 (ES7): 0.0198 µM
- IC50 (ETK-1): 0.00808 µM
- IC50 (EW-11): 0.434 µM
- IC50 (GAK): 0.373 µM
- IC50 (HAL-01): 0.0082 µM
- IC50 (HC-1): < 0.004 µM
- IC50 (HD-MY-Z): 0.00668 µM
- IC50 (HL-60): 0.0157 µM
- IC50 (IST-SL1): 0.197 µM
- IC50 (L-363): 0.0955 µM
- IC50 (LB2241-RCC): < 0.004 µM
- IC50 (LB771-HNC): > 1.02 µM
- IC50 (LB831-BLC): 0.0419 µM
- IC50 (LS-1034): > 1.02 µM
- IC50 (MEG-01): 0.00127 µM
- IC50 (MFM-223): > 1.02 µM
- IC50 (MHH-PREB-1): 0.248 µM
- IC50 (MOLT-16): 0.0431 µM
- IC50 (MOLT-4): 0.0653 µM
- IC50 (MZ7-mel): 0.0427 µM
- IC50 (Mo): > 1.02 µM
- IC50 (NB12): 0.155 µM
- IC50 (NB6): > 1.02 µM
- IC50 (NB69): 0.00105 µM
- IC50 (NCI-H1838): > 1.02 µM
- IC50 (NCI-H446): 0.269 µM
- IC50 (NKM-1): < 0.004 µM
- IC50 (NOS-1): 0.0324 µM
- IC50 (P30-OHK): 0.00146 µM
- IC50 (RCC10RGB): 0.634 µM
- IC50 (SCC-15): 0.121 µM
- IC50 (SF-268): < 0.004 µM
- IC50 (SH-4): 0.00902 µM
- IC50 (SNB-75): 0.0372 µM
- IC50 (SW872): < 0.004 µM
- IC50 (SW 962): 0.0524 µM
- IC50 (SW982): < 0.004 µM
- IC50 697: 0.00625 µM
- IC50 (8-MG-BA): 0.00593 µM
- IC50 (A4-Fuk): < 0.004 µM
- IC50 (BV-173): 0.0173 µM
- IC50 (TE-5): < 0.004 µM
- IC50 (TE-8): 0.008 µM
- IC50 (TGBC24TKB): > 1.02 µM
- IC50 (U-87 MG): 0.191 µM
